Active and inactive are the calls of the source. The calls are words filed in the database; no cut-off is given here.

Test [1] deals with T1, Histone-lysine N-methyltransferase NSD3 (Homo sapiens) (UniProt Q9BZ95).
T1 sequence (whole entry): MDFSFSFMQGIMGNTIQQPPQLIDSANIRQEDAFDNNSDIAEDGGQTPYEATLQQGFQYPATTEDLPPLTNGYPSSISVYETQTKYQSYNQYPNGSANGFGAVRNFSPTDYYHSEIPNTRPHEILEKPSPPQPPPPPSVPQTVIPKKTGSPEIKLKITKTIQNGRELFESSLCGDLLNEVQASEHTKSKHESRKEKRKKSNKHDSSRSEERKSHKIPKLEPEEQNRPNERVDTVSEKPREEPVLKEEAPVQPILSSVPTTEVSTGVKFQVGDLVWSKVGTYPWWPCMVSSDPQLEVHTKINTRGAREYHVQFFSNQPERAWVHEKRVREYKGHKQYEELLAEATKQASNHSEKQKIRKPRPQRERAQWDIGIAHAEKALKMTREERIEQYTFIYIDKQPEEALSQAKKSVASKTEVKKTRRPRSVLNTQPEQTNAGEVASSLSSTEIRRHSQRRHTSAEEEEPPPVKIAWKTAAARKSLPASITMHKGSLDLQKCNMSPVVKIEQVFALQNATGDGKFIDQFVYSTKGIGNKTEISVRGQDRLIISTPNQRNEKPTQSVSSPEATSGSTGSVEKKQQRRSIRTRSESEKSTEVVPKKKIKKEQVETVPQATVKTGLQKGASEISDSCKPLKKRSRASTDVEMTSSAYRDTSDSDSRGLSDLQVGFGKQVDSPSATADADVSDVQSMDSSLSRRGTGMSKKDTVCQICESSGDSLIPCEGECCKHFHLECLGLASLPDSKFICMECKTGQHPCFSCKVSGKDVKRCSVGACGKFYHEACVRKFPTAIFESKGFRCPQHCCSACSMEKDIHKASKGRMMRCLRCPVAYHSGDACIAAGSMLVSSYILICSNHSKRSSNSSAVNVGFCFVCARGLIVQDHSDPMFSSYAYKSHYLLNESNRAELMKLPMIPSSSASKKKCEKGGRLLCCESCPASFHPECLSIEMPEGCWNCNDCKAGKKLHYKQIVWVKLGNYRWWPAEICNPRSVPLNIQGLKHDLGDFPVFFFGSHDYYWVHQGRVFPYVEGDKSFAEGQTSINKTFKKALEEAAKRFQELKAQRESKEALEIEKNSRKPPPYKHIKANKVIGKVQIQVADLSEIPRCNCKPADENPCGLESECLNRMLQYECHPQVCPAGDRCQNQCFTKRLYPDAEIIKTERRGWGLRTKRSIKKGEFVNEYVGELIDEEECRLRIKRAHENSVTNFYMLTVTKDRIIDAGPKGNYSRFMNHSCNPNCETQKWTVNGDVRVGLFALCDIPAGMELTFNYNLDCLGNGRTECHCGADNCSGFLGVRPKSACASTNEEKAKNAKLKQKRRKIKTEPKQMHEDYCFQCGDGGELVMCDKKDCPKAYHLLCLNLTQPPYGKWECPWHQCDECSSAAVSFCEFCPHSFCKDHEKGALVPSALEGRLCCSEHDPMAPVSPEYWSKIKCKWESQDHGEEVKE
Put plainly: Induction of NSD3 degradation in human NCI-H1703 cells at 5 uM incubated for 72 hrs by Western blot analysis. In kind it is cell-based.

The target in test [2] is T1, Histone-lysine N-methyltransferase NSD3 (Homo sapiens). The experiment in a line: Induction of NSD3 degradation in human NCI-H1703 cells at 5 uM measured after 48 hrs by Western blot analysis relative to control. In kind it is cell-based.
Test [3] deals with T2, Histone-lysine N-methyltransferase NSD3 (Homo sapiens, UniProt Q9BZ95).
T2 sequence (Q9BZ95 whole entry): T1 sequence (whole entry)
The experiment in a line: Induction of NSD3 degradation in human A549 cells measured after 72 hrs by Western blot analysis. In kind it is cell-based.

Test [4] has as its target T1, Histone-lysine N-methyltransferase NSD3 (Homo sapiens). Put plainly: Induction of NSD3 degradation in human A549 cells assessed as reduction of NSD3 protein at 7.5 measured after 48 hrs by Western blot analysis. In kind it is cell-based.
Test [5] deals with NCI-H1703. Put plainly: Downregulation of IGFBP3 in human NCI-H1703 cells at […] measured after 72 hrs by RNA sequencing assay. It is filed as functional, cell-based. The conditions noted are these: dose 7.5 µM.
The test system of test [6] is NCI-H1703. The experiment in a line: Downregulation of CDC25A in human NCI-H1703 cells measured after 72 hrs by RT-qPCR method. It is filed as functional, cell-based. The note with it: dose 3-7.5 µM.
The subject of test [7] is NCI-H1703. Put plainly: Induction of apoptosis in human NCI-H1703 cells assessed as decrease in MCL-1 protein expression at 5 to 10 uM by Western blot analysis. In kind it is functional, cell-based. The note with it: dose 5-10 µM.
The test system of test [8] is NCI-H1703. Put plainly: Induction of apoptosis in human NCI-H1703 cells assessed as early apoptotic cells at 3 uM measured after 72 hrs by PI/Annexin-V staining based flow cytometry analysis (reference value: 1.47% ). In kind it is functional.
For test [9], the system named is NCI-H1703. Put plainly: Induction of apoptosis in human NCI-H1703 cells assessed as late apoptotic cells at 10 uM measured after 72 hrs by PI/Annexin-V staining based flow cytometry analysis (reference value: 3.00% ). In kind it is functional.
Test [10] in a line: Inhibition of clone formation in human NCI-H1703 cells at 3 uM incubated for 10 days with media replenishment for every 5 days by crystal violet staining based analysis relative to control. It is filed as functional. The conditions noted are these: NCI-H1703, 240 h, time 10 day.
The nature of test [11]: Downregulation of NSD3 level in human NCI-H1703 cells at […] by measuring fold change by Western blot analysis relative to control. In kind it is functional. The conditions noted are these: dose 7.5 µM.
Test [12] can be described thus: Downregulation of c-Myc level in human NCI-H1703 cells at 3 uM by measuring fold change by Western blot analysis relative to control. In kind it is functional.
A short description of test [13]: Downregulation of CDC25A level in human NCI-H520 cells at 3 uM by measuring fold change by Western blot analysis relative to control. In kind it is functional.
Test [14] in a line: Downregulation of CDC25A level in human NCI-H520 cells at 5 uM by measuring fold change by Western blot analysis relative to control. In kind it is functional.
The subject of test [15] is NCI-H1703. The experiment in a line: Induction of apoptosis in human NCI-H1703 cells assessed as decrease in Bcl-XL protein expression at 5 uM by measuring fold change by Western blot analysis relative to control. It is filed as functional.
Test [16] deals with NCI-H520. The experiment in a line: Induction of apoptosis in human NCI-H520 cells assessed as decrease in NSD3 protein expression at 10 uM by measuring fold change by Western blot analysis relative to control. It is filed as functional.
For test [17], the system named is NCI-H520. The experiment in a line: Induction of apoptosis in human NCI-H520 cells assessed as decrease in MCL-1 protein expression at 5 uM by measuring fold change by Western blot analysis relative to control. In kind it is functional.
The test system of test [18] is NCI-H520. The experiment in a line: Induction of apoptosis in human NCI-H520 cells assessed as decrease in MCL-1 protein expression at […] by measuring fold change by Western blot analysis relative to control. It is filed as functional. The conditions noted are these: dose 7.5 µM.
The subject of test [19] is NCI-H520. Put plainly: Induction of apoptosis in human NCI-H520 cells assessed as decrease in Bcl-XL protein expression at 5 uM by measuring fold change by Western blot analysis relative to control. In kind it is functional.

In test [1], `Cc1cc(CNCCCCCCCCCCC(=O)N[C@H](C(=O)N2C[C@H](O)C[C@H]2C(=O)N[C@@H](C)c2ccc(-c3scnc3C)cc2)C(C)(C)C)cc(C)c1-c1ncn(C)c1-c1ccnc2cc(F)ccc12` had an NSD3 degradation of 58.9%. In addition, the Activity is 60% in [2], “Dose-Dependent Effect” in [6], 1.48% in test [8] and 62.9% in test [9]. In test [3], it took 940 nM to reach a half-maximal effect (EC50). For the same compound, the result in test [4], in test [5] and in test [7] was Active. The compound further came in with an inhibition at 3 µM in [10] of 100%. For the same compound, the “fold change (FC)” value in test [11] was found to be 0.66; in test [12], 0.86; in test [13] it was 0.9; in test [14] it was 0.93; in test [15], 1.1; in test [16], 0.49. The “fold change (FC)” value was 0.86 in test [17], 0.61 in [18] and 1.1 in test [19].
